How the values were obtained:
Type in all cases: in vivo
[1] = tested on: winter barley (HORVX, Hordeum vulgare); experiment: Test F mixtures with safener cloquintocet-mexyl, pre-/postemergence plant response; conditions: applied alone
[2] = tested on: winter wheat (TRZAW, Triticum aestivum); experiment: as above; conditions: applied alone
[3] = tested on: Canada horseweed (Conyza canadensis); experiment: Test E pre-/postemergence plant response; conditions: Postemergence, scale 0 to 100
Summary of the method: (§1)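 Pre- and postemergence greenhouse test; compounds formulated in non-phytotoxic solvent with surfactant, postemergence plants 2–18 cm (1- to 4-leaf stage). Visual rating against untreated controls after 14 to 21 days, on a 0 (no effect) to 100 (complete control) scale.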

[4] = tested on: common ragweed (Ambrosia elation); experiment: Test E pre-/postemergence plant response; conditions: scale 0 to 100
Summary of the method: as §1

[5] = tested on: field bindweed (Convolvulus arvensis); experiment: Test E pre-/postemergence plant response; conditions: scale 0 to 100
Summary of the method: as §1

[6] = tested on: spanishneedles (Bidens bipinnata); experiment: Test E pre-/postemergence plant response; conditions: scale 0 to 100
Summary of the method: as §1

[7] = tested on: wild oat (AVEFA, Avena fatua); experiment: Test G mixtures of Compound 26 with crop safeners, postemergence plant response; conditions: applied alone
Experimental: (§2) This test evaluated the effect of mixtures of Compound 26 with commercial crop safeners cloquintocet-mexyl, mefenpyr-diethyl, and fenchlorazole-ethyl on three plant species. Seeds of winter wheat (TRZAW, Triticum aestivum), winter barley (HORVX, Hordeum vulgare), and wild oat (AVEFA, Avena fatua) (a weed) were planted into a silt loam soil. Plants from these seeds were treated postemergence using test chemicals formulated in a non-phytotoxic solvent mixture that included a surfactant. Plants ranged in height from 6 to 10 cm (2- to 3-leaf stage).
(§3) Plants were grown in a greenhouse using supplemental lighting to maintain a photoperiod of about 14 hours; daytime and nighttime temperatures were about 22-26° C. and 15-19° C., respectively. Balanced fertilizer was applied through the watering system. Treatments consisted of Compound 26 and the above mentioned safeners alone and in combination using a spray volume of 281 L/ha. Each treatment was replicated four times. Treated plants and controls were maintained in a greenhouse for 15 days, after which time all treated plants were compared to controls and visually evaluated. Plant response ratings were calculated as the means of the four replicates based on a scale of 0 to 100 where 0 is no effect and 100 is complete control and are summarized in Tables G1 to G3. Because the safeners alone caused no injury at the rates tested, the expected effect of a mixture of Compound 26 with a safener is the same as the observed effect of Compound 26 alone.
(§4) The highest application rate of each safener was tested alone to confirm the absence of herbicidal activity on the test species when appled postemergence at 125 g ai/ha. Therefore, an extrapolated result of zero for each safener alone at 16, 31, or 62 g ai/ha was used to calculate the mixture response of Compound 26 and these safener application rates.

[8] = tested on: winter barley (HORVX, Hordeum vulgare); experiment: as above; conditions: applied alone
Experimental: as §2, §3, §4

4-[3-(4-chlorophenyl)-5-methyl-1H-pyrazol-3-yl]-5-hydroxy-2-methyl-3(2H)-pyridazinone [Compound 3]
68: HORVX Obsd. (observed effect) plant response rating, scale 0 to 100 ([1]; preemergence, 16 g a.i./ha)
77: TRZAW Obsd. (observed effect) plant response rating, scale 0 to 100 ([2]; preemergence, 16 g a.i./ha)
22: TRZAW Obsd. (observed effect) plant response rating, scale 0 to 100 ([2]; postemergence, 16 g a.i./ha)
33: TRZAW Obsd. (observed effect) plant response rating, scale 0 to 100 ([2]; preemergence, 8 g a.i./ha)
32: HORVX Obsd. (observed effect) plant response rating, scale 0 to 100 ([1]; preemergence, 8 g a.i./ha)
15: HORVX Obsd. (observed effect) plant response rating, scale 0 to 100 ([1]; postemergence, 16 g a.i./ha)
10: HORVX Obsd. (observed effect) plant response rating, scale 0 to 100 ([1]; preemergence, 4 g a.i./ha)
0: HORVX Obsd. (observed effect) plant response rating, scale 0 to 100 ([1]; postemergence, 4 g a.i./ha) | HORVX Obsd. (observed effect) plant response rating, scale 0 to 100 ([1]; postemergence, 8 g a.i./ha) | TRZAW Obsd. (observed effect) plant response rating, scale 0 to 100 ([2]; postemergence, 4 g a.i./ha) | TRZAW Obsd. (observed effect) plant response rating, scale 0 to 100 ([2]; postemergence, 8 g a.i./ha) | TRZAW Obsd. (observed effect) plant response rating, scale 0 to 100 ([2]; preemergence, 4 g a.i./ha)

CCc1cc(-c2ccc(C(F)(F)F)cc2)nn1-c1c(O)cnn(C)c1=O [Compound 11, 4-[5-ethyl-3-[4-(trifluoromethyl)phenyl]-1H-pyrazol-1-yl]-5-hydroxy-2-methyl-3(2H)-pyridazinone]
5: HORVX Obsd. (observed effect) plant response rating, scale 0 to 100 ([1]; postemergence, 4 g a.i./ha)
90: HORVX Obsd. (observed effect) plant response rating, scale 0 to 100 ([1]; postemergence, 16 g a.i./ha)
32: TRZAW Obsd. (observed effect) plant response rating, scale 0 to 100 ([2]; postemergence, 16 g a.i./ha) | TRZAW Obsd. (observed effect) plant response rating, scale 0 to 100 ([2]; preemergence, 4 g a.i./ha)
70: HORVX Obsd. (observed effect) plant response rating, scale 0 to 100 ([1]; preemergence, 8 g a.i./ha)
22: HORVX Obsd. (observed effect) plant response rating, scale 0 to 100 ([1]; preemergence, 4 g a.i./ha)
92: HORVX Obsd. (observed effect) plant response rating, scale 0 to 100 ([1]; preemergence, 16 g a.i./ha) | TRZAW Obsd. (observed effect) plant response rating, scale 0 to 100 ([2]; preemergence, 16 g a.i./ha)
3: TRZAW Obsd. (observed effect) plant response rating, scale 0 to 100 ([2]; postemergence, 8 g a.i./ha)
72: TRZAW Obsd. (observed effect) plant response rating, scale 0 to 100 ([2]; preemergence, 8 g a.i./ha)
55: HORVX Obsd. (observed effect) plant response rating, scale 0 to 100 ([1]; postemergence, 8 g a.i./ha)
0: Plant response rating, Horseweed ([3]; 4 g ai/ha) | Plant response rating, Horseweed ([3]; 8 g ai/ha) | Plant response rating, Horseweed ([3]; 16 g ai/ha) | Plant response rating, Horseweed ([3]; 31 g ai/ha) | Plant response rating, Ragweed ([4]; 4 g ai/ha, Postemergence) | Plant response rating, Ragweed ([4]; 16 g ai/ha, Preemergence) | Plant response rating, Ragweed ([4]; 31 g ai/ha, Preemergence) | Plant response rating, Ragweed ([4]; Postemergence, 8 g ai/ha) | Plant response rating, Ragweed ([4]; Postemergence, 16 g ai/ha) | Plant response rating, Ragweed ([4]; Postemergence, 31 g ai/ha) | Plant response rating, Ragweed ([4]; Preemergence, 4 g ai/ha) | Plant response rating, Field Bindweed ([5]; 4 g ai/ha, Postemergence) | Plant response rating, Field Bindweed ([5]; 8 g ai/ha, Preemergence) | Plant response rating, Field Bindweed ([5]; 16 g ai/ha, Preemergence) | Plant response rating, Field Bindweed ([5]; 31 g ai/ha, Preemergence) | Plant response rating, Field Bindweed ([5]; Postemergence, 8 g ai/ha) | Plant response rating, Field Bindweed ([5]; Postemergence, 16 g ai/ha) | Plant response rating, Field Bindweed ([5]; Postemergence, 31 g ai/ha) | Plant response rating, Field Bindweed ([5]; Preemergence, 4 g ai/ha) | Plant response rating, Spanishneedles ([6]; 4 g ai/ha, Postemergence) | Plant response rating, Spanishneedles ([6]; 16 g ai/ha, Preemergence) | Plant response rating, Spanishneedles ([6]; 31 g ai/ha, Preemergence) | Plant response rating, Spanishneedles ([6]; Postemergence, 8 g ai/ha) | Plant response rating, Spanishneedles ([6]; Postemergence, 16 g ai/ha) | Plant response rating, Spanishneedles ([6]; Postemergence, 31 g ai/ha) | Plant response rating, Spanishneedles ([6]; Preemergence, 4 g ai/ha)
18: TRZAW Obsd. (observed effect) plant response rating, scale 0 to 100 ([2]; postemergence, 4 g a.i./ha)

CCc1cc(-c2ccc(C(F)(F)F)cc2)nn1-c1c(OS(C)(=O)=O)cnn(C)c1=O [Compound 19]
0: Plant response rating, Horseweed ([3]; 4 g ai/ha) | Plant response rating, Horseweed ([3]; 8 g ai/ha) | Plant response rating, Horseweed ([3]; 16 g ai/ha) | Plant response rating, Horseweed ([3]; 31 g ai/ha) | Plant response rating, Ragweed ([4]; 4 g ai/ha, Postemergence) | Plant response rating, Ragweed ([4]; 16 g ai/ha, Preemergence) | Plant response rating, Ragweed ([4]; 31 g ai/ha, Preemergence) | Plant response rating, Ragweed ([4]; Postemergence, 8 g ai/ha) | Plant response rating, Ragweed ([4]; Postemergence, 16 g ai/ha) | Plant response rating, Ragweed ([4]; Postemergence, 31 g ai/ha) | Plant response rating, Ragweed ([4]; Preemergence, 4 g ai/ha) | Plant response rating, Field Bindweed ([5]; 4 g ai/ha, Postemergence) | Plant response rating, Field Bindweed ([5]; 8 g ai/ha, Preemergence) | Plant response rating, Field Bindweed ([5]; 16 g ai/ha, Preemergence) | Plant response rating, Field Bindweed ([5]; 31 g ai/ha, Preemergence) | Plant response rating, Field Bindweed ([5]; Postemergence, 8 g ai/ha) | Plant response rating, Field Bindweed ([5]; Postemergence, 16 g ai/ha) | Plant response rating, Field Bindweed ([5]; Postemergence, 31 g ai/ha) | Plant response rating, Field Bindweed ([5]; Preemergence, 4 g ai/ha) | Plant response rating, Spanishneedles ([6]; 4 g ai/ha, Postemergence) | Plant response rating, Spanishneedles ([6]; 16 g ai/ha, Preemergence) | Plant response rating, Spanishneedles ([6]; 31 g ai/ha, Preemergence) | Plant response rating, Spanishneedles ([6]; Postemergence, 8 g ai/ha) | Plant response rating, Spanishneedles ([6]; Postemergence, 16 g ai/ha) | Plant response rating, Spanishneedles ([6]; Preemergence, 4 g ai/ha)

CCc1c(C)c(-c2ccc(Cl)cc2)nn1-c1c(O)cnn(C)c1=O [Compound 26, 4-[3-(4-chlorophenyl)-5-ethyl-4-methyl-1H-pyrazol-1-yl]-5-hydroxy-2-methyl-3(2H)-pyridazinone]
34: HORVX Obsd. (observed effect) plant response rating, scale 0 to 100 ([8]; 125 g a.i./ha)
99: AVEFA Obsd. (observed effect) plant response rating, scale 0 to 100 ([7]; 250 g a.i./ha)
89: AVEFA Obsd. (observed effect) plant response rating, scale 0 to 100 ([7]; 62 g a.i./ha)
19: HORVX Obsd. (observed effect) plant response rating, scale 0 to 100 ([8]; 62 g a.i./ha)
45: HORVX Obsd. (observed effect) plant response rating, scale 0 to 100 ([8]; 250 g a.i./ha)
97: AVEFA Obsd. (observed effect) plant response rating, scale 0 to 100 ([7]; 125 g a.i./ha)
